Values quoted from earlier work as cited in paper PMC4696931 (Advanced healthcare materials, 2015).

What was measured:
MMP2 [1] = conditions: linker peptide alone
MMP2 [2] = conditions: PEG hydrogels with the peptide as crosslinker

## SGESPAY↓YTA [NRL1]
MMP2 [1]
  reported kcat KM^−1 for MMP2: 440000 M⁻¹ s⁻¹
MMP2 [2]
  time to degradation of hydrogels crosslinked with the sequence in MMP2: ~ 1 days
